Experimental data from a melting point compilation (Tetko et al.; mined from patent text by program, amines drawn as free bases though some values may be those of a salt).

| melting point [°C] | Structure (SMILES) |
| --- | --- |
| 140 to 142 | CCC(=O)OC1(C(=O)CCl)C(C)CC2C3CCC4CC(=O)CCC4(C)C3=CCC21C (configuration not stated) |
| 46 | COCCOCOc1ccc(C(=O)c2nc3ccc(OCOCCOC)cc3s2)cc1 |
| 100 to 103 | Fc1cccc(F)c1-c1ccc2cccnc2n1 |
| 125 to 126 | COc1nc(OC)c(I)c(C(=O)O)n1 |
| 109 to 111 | NCC1Cc2cccc(-c3ccccc3C(F)(F)F)c2O1 (configuration not stated) |
| 117 to 120 | CCOC(=O)Cc1ccc(NC(=O)C(CC(C)C)NS(=O)(=O)c2ccc(Cl)cc2)cc1 (racemic) |
| 131 to 132 | CCNC(=O)C(=O)NCC(OCC)OCC |
| > 300 | COc1ccc(C(=O)Nc2cc([N+](=O)[O-])ccc2C)cc1OC |
| 159 to 161 | O=C(O)CCOC(c1ccccc1)(c1ccccc1)c1ccccc1 |
| 138 to 141 | CCCn1c(SC)nc2cc(Br)sc2c1=O |
| 198 to 199 | COc1ccc(CNc2nc(NCCCc3ccc(C(C)(C)O)cc3)nc3ncccc23)cc1OC |
| 219 | CNC(=S)N1CCCC(N2CCC(Nc3nc4ccccc4n3Cc3ccc(F)cc3)CC2)C1 (configuration not stated) |
| 164 to 166 | Cc1cc(=O)oc2nn(C(C)C)c(C)c12 |
| 62 to 65 | Clc1ccc(N=Cc2ccccc2)cc1Cl |
| 169 to 170 | CC(CC(C(O)CC(C)(C)O)N(C)C)C1CCC2C(O)CCCC12C (configuration not stated) |
| 50 | CC(C)OC1OC(=O)CC(C)(C)C1O (configuration not stated) |
| 112 | CCOC(=O)C1=C(C)NN=C(CC)C1c1ccccc1Cl (configuration not stated) |
| 93 to 95 | C#CCOC(C(=O)NCCc1ccc(O)c(OC)c1)c1ccc(Cl)cc1 (configuration not stated) |
| 210 to 213 | Cc1cc2c(-c3ccccc3)noc2c2c1OC(C(=O)O)C2 (configuration not stated) |
| 75.5 to 76.5 | CCOC(=O)c1cc2ccc(Cl)cc2n1C |
| 104 to 106 | O=S(=O)(NCCCO)c1c(Cl)cc(Cl)cc1Cl |
| 173 to 174 | CCCn1nc2c(N)nc3c(c2c1CCC1CCCCC1)CCCC3 |

| melting point [°C] | Structure (SMILES) |
| --- | --- |
| 53 to 56 | COc1cc(CC(=O)N2CCN(C(=O)CNC3CCN(Cc4ccccc4)CC3)C(c3ccccc3)C2)cc(OC)c1OC (configuration not stated) |
| 162 | CNc1nc2ccc(OC(F)(F)F)cc2s1 |
| 98 to 100 | COC(=O)C(C)(C)OCC#Cc1cc(C(F)(F)F)ccc1NS(=O)(=O)c1ccc2c(c1)OCCN2C |
| 225 to 229 | COc1cc2c(Nc3ccc(Sc4nccn4C)c(Cl)c3)c(C#N)cnc2cc1N1CCC(N2CCCC2)CC1 |
| 249 to 250 | Cc1cc(-c2nc3sc4ccccc4n3c2CC(=O)O)c(C)s1 |
| 140 | S=C(Cc1ccccc1N1CCOCC1)N1CCOCC1 |
| 52 to 55 | CC(CCCO)C1CCC2C3C(OCc4ccccc4)CC4CC(OC5CCCCO5)CCC4(C)C3CCC12C (configuration not stated) |
| 278 to 282 | O=C(O)CN1C(=O)C(=Cc2c[nH]c3ccc(Cl)cc23)SC1=S |
| 98.5 to 99.5 | CC1(C)CC(=O)OC(C(Cl)(Cl)Cl)C1Br (configuration not stated) |
| 78 | CCCOc1cc(C2(C)CNC(=O)O2)ccc1OC (configuration not stated) |
| 177 to 179 | CCN1CCN(C(=O)NC(C(=O)O)c2cc(OC(C)=O)c(OC(C)=O)cc2F)C(=O)C1=O (configuration not stated) |
| 155 to 157 | CNC(=O)C(=C/c1ccccc1)/C(=C\c1cc(OC)c(OC)c(OC)c1)C(=O)OC |
| 91.5 to 93.2 | COc1ccc(C(=O)O)c(OCCN2CCC(c3cn(Cc4ccoc4)c4ncccc34)CC2)c1 |
| 58 to 61 | CCOC(=O)CNCc1cc(I)ccc1N |
| 238 to 240 | CCc1cc(=O)c2c([nH]1)CCOC2 |
| 173 to 175 | O=C(/C=C/C=C/c1ccc(Br)cc1)NCCCC(=O)NO |
| 156 to 159 | O=c1cc(-c2ccncc2)nc2n1CCOCC2 |
| 142 to 143 | CC(C)(C)c1ccc(CCC(O)CC2CCCC2)cc1NC(=O)CC1c2ccccc2Oc2ccccc21 (configuration not stated) |
| 87 to 102 | CC[C@@H]1NC(=O)C[C@@]1(O)C1CC1 |
| 140 to 143 | CC(C)CNc1cccnc1N1CCN(C(=O)c2ccc(C(=O)NC(C)(C)CO)cn2)CC1 |
| 198 to 200 | CN1CCN(CC(=O)N2c3ccccc3C(=O)Nc3cccnc32)CC1 |

Continued, compound first:

| Structure (SMILES) | melting point [°C] |
| --- | --- |
| O=C(Nc1cccc([N+](=O)[O-])c1)C(=O)N1CCC(Cc2ccc(F)cc2)CC1 | 135 to 138 |
| COc1ccc(C=N[C@H]2C(OC(C)=O)O[C@H](COC(C)=O)[C@@H](OC(C)=O)[C@@H]2OC(C)=O)cc1 (some centres not stated) | 180 to 181 |
| CSC(=C[N+](=O)[O-])Nc1ccc(C#N)cc1 | 188 to 190 |
| CC[C@@H]1O[C@](/C=C/C2CC2)(C(F)(F)F)c2cc(Cl)ccc2NC1=O (relative stereo) | 147 to 148 |
| CN1C(=O)CC(=O)N(C2CCCCC2)C1=O | 81 to 82 |
| COc1cc2c(cc1Nc1ncc(Cl)c(N[C@H]3[C@@H](C(N)=O)[C@@H]4C=C[C@H]3C4)n1)CCN(CCS(C)(=O)=O)CC2 | 132 to 146 |
| Cc1nc2cccc(OCC(C)(C)NC(=O)CN3CCOCC3)c2c(N)c1C(=O)O | 173 to 175 |
| Nc1ccc(S(F)(F)(F)(F)F)cc1[N+](=O)[O-] | 132 to 135 |
| N#CCc1cccc2c(-c3ccccc3Cl)nccc12 | 113 |
| Nc1c(F)c(N2CCC(=NO)CC2)c(F)c2c1c(=O)c(C(=O)O)cn2C1CC1 | 298 to 300 |
| O=C(O)c1cccc(Oc2cccc(-c3nn(Cc4ccc(C(F)(F)P(=O)(O)O)c(F)c4)c(=Nc4ccc(Cl)c(Cl)c4)s3)c2)c1 | 153 to 156 |
| CCOC(=O)COc1cc(C(=O)Oc2ccc([N+](=O)[O-])cc2)c(O)c2ccccc12 | 165 to 167 |
| CCCn1c(=O)n(-c2ccc3c(c2)OCO3)c2ncc(NC(=O)OCC)cc21 | 146 to 147 |
| CCc1cc(C(=O)c2ccccc2Cl)c(NC)s1 | 100 to 102 |
| CC(C)(C)c1cc(OCc2ccc(-c3nnn[nH]3)cc2)cc(C(C)(C)C)c1O | 235 to 237 |
| CC(=O)c1ccc(-n2c(C)ccc2-c2ccc(S(C)(=O)=O)cc2)cc1 | 179 to 180 |
| COc1ccc(C=CC(=O)c2cccc(OCCCCCBr)c2)cc1 | 83 to 84 |
| CC(=O)COC(=O)C=CC(=O)OCC(C)=O | 121 to 123 |
| Cn1c(Cc2cccc(C(F)(F)F)c2)nc2c(-c3cccc(C(=O)NCCO)c3)cccc21 | 147 to 148 |
| CC(=Cc1ccc2ccc3cccc4ccc1c2c34)c1ccc(Cl)cc1 | 162 to 164 |
| COc1nccc(-c2ccc3cc(N(C)C)ccc3c2)c1C#N | 150 to 151 |
| CC(C)COC(=O)Nc1ccc(Sc2c(O)c3c(Cl)cc(Cl)cc3[nH]c2=O)cc1 | > 300 |
| O=c1oc(-c2ccccc2)cc(O)c1SCc1ccc(OCc2ccccc2)cc1 | 185 to 186 |
| COc1ccc(CNc2nc(N3CCC[C@H]3CO)ncc2C(=O)Nc2cncnc2)cc1Cl | 192 to 195 |
| CC1=CC(c2ccc(Cl)cc2)C2=C(CCCC2=O)N1 (configuration not stated) | 184 to 187 |
| CC(C)NC(=O)c1c(NC(=O)c2cc(C(F)(F)F)nn2-c2ncccc2Cl)ccc2cn[nH]c12 | 203 to 205 |
| COc1ccc(C(=O)O)c(OCc2ccc(OCCc3nc(-c4ccccc4)oc3C)cc2)c1 | 113 to 115 |

| Structure (SMILES) | melting point [°C] |
| --- | --- |
| O=C(NOC(=O)c1ccccc1)OCC1c2ccccc2-c2ccccc21 | 150 |
| O=C(c1cccc(-c2cc3ccccc3n2S(=O)(=O)c2ccccc2)c1)c1cc2ccccc2n1S(=O)(=O)c1ccccc1 | 189 to 190 |
| NC(=O)c1ccnn1-c1ccc(Oc2ccccc2)cc1 | 142 to 144 |
| CCOc1ccc2c(Nc3ccc(Cl)cc3F)c(C#N)cnc2c1 | 221 to 224 |
| O=C(O)c1cc(=O)n(Cc2ccccc2S(=O)(=O)O)[nH]1 | 223 to 226 |
| OC1CC(O)C2CC1NN2 (configuration not stated) | 203 to 205 |
| CCCn1cc2c(C3C(=O)Nc4ccc(Br)cc43)nc(NCC3CCCO3)nc2n1 (configuration not stated) | 309 to 312 |
| COCCOc1cc(NC(=O)OC(C)(C)C)c(NC(=O)CC(=O)c2cccc(-n3ccnc3)c2)cc1C#Cc1ccccc1 | 122 to 129 |
| CCCc1c(C(=O)C(C)C)c2ccc(C(N)=O)cc2n1Cc1c(Cl)cccc1Cl | 208 to 209 |
| CC(=O)ON(C(N)=O)C(C)c1cc2ccccc2s1 (configuration not stated) | 138 |
| CCCOC(=O)c1cc(C(=O)Nc2ccccc2O)cc(Br)c1O | 198 to 200 |
| CCO/C(=N/OC(C)=O)C1Cc2cc(C(=O)c3ccccc3F)c(O)c(Cl)c2O1 (configuration not stated) | 111 to 112 |
| CN1CC=C(c2c[nH]c3ccc(NS(=O)(=O)N(C)C)cc23)CC1 | 207 to 208 |
| NC(=O)c1occc1C(=O)NC1CCN(Cc2ccc3ccccc3c2)CC1 | 157 to 159 |
| O=C1CCC(c2ccc(N=C(CCCc3ccccc3)c3ccc(O)cc3O)cc2)=NN1 | 274 to 280 |
| Cc1nc2c(N)nc3ccccc3c2n1CCOCCNS(=O)(=O)C(C)C | 172 to 175 |
| Nc1nc(SCc2ccccc2)c2ncn(C3CC(F)C(CO)O3)c2n1 (configuration not stated) | 150 to 151 |
| CS(=O)(=O)Nc1c(-c2ccccc2)c(=O)[nH]c2cc(Cl)ccc12 | 222 to 224 |
| O=C(NCCc1cccc2ccccc12)C(F)(F)F | 79 to 80 |
| Cc1c(F)c(N2CCC(n3cc(-c4ccccc4)nn3)C2)c(F)c2c1c(=O)c(C(=O)O)cn2C1CC1 (configuration not stated) | 221 |
| CCOC(=O)c1c(N2CCN(C(=O)c3ccco3)CC2)c2cc(F)cnc2n(CC(=O)c2ccccc2)c1=O | 134 |
| COc1ccc(CCN(C)CCCCc2ccc(NC(=O)c3cccc4c(=O)c5cc(F)ccc5sc34)cc2)cc1OC | 145 |
| CCc1cccc2c3c([nH]c12)C(CC)(CC(C)=O)OCC3 (configuration not stated) | 154 to 155 |
| CSC1C(=O)Nc2c(Oc3ccccc3)cccc21 (configuration not stated) | 149 to 150 |
| O=C(CCN1CCCC1)Nc1ccc2[nH]c3ccc(NC(=O)CCN4CCCC4)cc3c(=O)c2c1 | > 320 |
| CN(C)C(=O)C1(CCCN2CCCCC2)CC=CCC1c1ccccc1 (configuration not stated) | 105 to 106 |
| CCCCC(C(=O)O)c1cccc(C(=O)c2cc3cc(C(=O)O)sc3s2)c1 (configuration not stated) | 208 |
